# System: rat small-intestinal brush border membrane vesicles
# Assay: Inhibitory effect on 33PO4 uptake into rat small-intestinal brush border membrane vesicles (rapid filtration method)
# Assay type: biochemical
# Conditions: 33PO4 uptake into rat small-intestinal BBMVs; test compound 1 µM; reacted for 60 seconds
# How it was run: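 Uptake of ^33PO4 was measured by rapid filtration and liquid scintillation counting of filter-retained vesicles, after quenching with ice-cold 110 mM NaCl/1 mM KH2PO4/10 mM HEPES pH 7.5. Vesicles were brush border membranes from the upper small intestine of female Wistar rats aged 4–5 weeks.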
row,Compound,Rate of uptake inhibition (%) (1 µM)
1,"COCCN1CCC[C@H]1COc1ccc(CN2C(=O)C(C(=O)Nc3ccc(C(F)(F)F)cc3-c3cc(C(F)(F)F)ncn3)=C(O)C3(CCC3)N2C)c(F)c1F [Example 404, 6-[[2,3-Difluoro-4-[[(2S)-1-(2-methoxyethyl)pyrrolidin-2-yl]methoxy]phenyl]methyl]-9-hydroxy-5-methyl-7-oxo-N-[4-(trifluoromethyl)-2-[6-(trifluoromethyl)pyrimidin-4-yl]phenyl]-5,6-diazaspiro[3.5]non-8-ene-8-carboxamide]",43%
2,C[C@]12CCCN1N(Cc1ccc(C#CCOCCCCO)c(F)c1F)C(=O)C(C(=O)Nc1ccc(C(F)(F)F)cc1-c1ccc(C(F)(F)F)nc1)=C2O [Example 128],72%
3,"C[C@]12CCCN1N(Cc1ccc(CCCCCCC(=O)O)c(F)c1F)C(=O)C(C(=O)Nc1ccc(Cl)cc1-c1ccc(C(F)(F)F)nc1)=C2O [Example 116, 7-[4-[[(4aR)-3-[[4-Chloro-2-[6-(trifluoromethyl)pyridin-3-yl]phenyl]carbarnoyl]-4-hydroxy-4a-methyl-2-oxo-6,7-dihydro-5H-pyrrolo[1,2-b]pyridazin-1-yl]methyl]-2,3-difluorophenyl]heptanoate]",72%
4,"CN(C[C@H](O)[C@@H](O)[C@H](O)[C@H](O)CO)C(=O)COCCOCCOCCOCCOc1ccc(CN2C(=O)C(C(=O)Nc3ccc(C(F)(F)F)cc3-c3cc(C(F)(F)F)ncn3)=C(O)C3(CCCC3)N2C)c(F)c1F [Example 441, 7-[[2,3-Difluoro-4-[2-[2-[2-[2-[2-[methyl-[(2S,3R,4R,5R)-2,3,4,5,6-pentahydroxyhexyl]amino]-2-oxoethoxy]ethoxy]ethoxy]ethoxy]ethoxy]phenyl]methyl]-10-hydroxy-6-methyl-8-oxo-N-[4-(trifluoromethyl)-2-[6-(trifluoromethyl)pyrimidin-4-yl]phenyl]-6,7-diazaspiro[4.5]dec-9-ene-9-carboxamide]",22%
5,CN1N(Cc2ccc(OCCCCCOC[C@H](O)CO)c(F)c2F)C(=O)C(C(=O)Nc2ccc(C(F)(F)F)cc2-c2cc(C(F)(F)F)ncn2)=C(O)C12CCC2 [Example 391],42%
6,CN(C[C@H](O)[C@@H](O)[C@H](O)[C@H](O)CO)C(=O)CCOCCOCCOc1ccc(CN2C(=O)C(C(=O)Nc3ccc(C(F)(F)F)cc3-c3cc(C(F)(F)F)ncn3)=C(O)C3(CCCC3)N2C)c(F)c1F [Example 422],29%
7,C[C@]12CCCN1N(Cc1ccc(OCCN3CCOCC3)c(F)c1F)C(=O)C(C(=O)Nc1ccc(Cl)cc1-c1ccc(C(F)(F)F)nc1)=C2O [Example 102],65%
8,C[C@]12CCCN1N(Cc1cccc(Cl)c1F)C(=O)C(C(=O)Nc1ccc(C(F)(F)F)cc1-c1ccc(C(F)(F)F)nc1)=C2O [Example 198],75%
9,COc1ccc(OC)c(CN2C(=O)C(C(=O)Nc3ccc(C(F)(F)F)cc3-c3ccc(C(F)(F)F)nc3)=C(O)[C@@]3(C)CCCN23)c1 [Example 176],75%
10,CN1N(Cc2ccc(OCCCOCCCO)c(F)c2F)C(=O)C(C(=O)Nc2ccc(C(F)(F)F)cc2-c2cc(C(F)(F)F)ncn2)=C(O)C12CCCC2 [Example 398],34%
11,Cc1c(Cl)ncnc1-c1cc(C(F)(F)F)ccc1NC(=O)C1=C(O)[C@H](C(C)(C)C)N(C)N(Cc2ccc(OCCN3CCOCC3)c(F)c2F)C1=O [Example 276],68%
12,C[C@]12CCCN1N(Cc1ccccc1Cl)C(=O)C(C(=O)Nc1cc(F)c(Br)c(F)c1)=C2O [Example 219],95%
13,COC1(C)CN(CCOc2ccc(CN3C(=O)C(C(=O)Nc4ccc(C(F)(F)F)cc4-c4cc(C(F)(F)F)ncn4)=C(O)C4(CCC4)N3C)c(F)c2F)C1 [Example 356],58%
14,COCCN(C)CCOCCOCCOc1ccc(CN2C(=O)C(C(=O)Nc3ccc(C(F)(F)F)cc3-c3cc(C(F)(F)F)ncn3)=C(O)C3(CCCC3)N2C)c(F)c1F [Example 430],29%
15,C[C@]12CCCN1N(Cc1cccc(F)c1F)C(=O)C(C(=O)Nc1ccc(C(F)(F)F)cc1-c1cncc(C(F)(F)F)c1)=C2O [Example 91],87%
16,CN1N(Cc2ccc(OCCCOC[C@H](O)CO)c(F)c2F)C(=O)C(C(=O)Nc2ccc(C(F)(F)F)cc2-c2cc(C(F)(F)F)ncn2)=C(O)C12CCC2 [Example 389],29%
17,"C[C@]12CCCN1N(Cc1ccc(Br)cc1F)C(=O)C(C(=O)Nc1cc(F)c(Br)c(F)c1)=C2O [Example 166, (4aR)-N-(4-Bromo-3,5-difluorophenyl)-1-[(4-bromo-2-fluorophenyl)methyl]-4-hydroxy-4a-methyl-2-oxo-6,7-dihydro-5H-pyrrolo[1,2-b]pyridazine-3-carboxamide]",73%
18,Cc1c(-c2cc(C(F)(F)F)ccc2NC(=O)C2=C(O)C3(CCCC3)N(C)N(Cc3ccc(OCCN4CCOCC4)c(F)c3F)C2=O)ncnc1C(F)(F)F [Example 290],59%
19,C[C@]12CCCN1N(Cc1cccc(F)c1F)C(=O)C(C(=O)Nc1ccc(C(F)(F)F)cc1-c1cc(Cl)cnc1Cl)=C2O [Example 84],91%
20,CN1N(Cc2ccc(OCCN3CCOCC3)c(F)c2F)C(=O)C(C(=O)Nc2ccc(C(F)(F)F)cc2-c2ccc(C(F)(F)F)nc2)=C(O)C12CCC2 [Example 282],55%
21,C[C@]12CCCN1N(Cc1c(F)cc(C#CCCCCCOC[C@H](O)[C@@H](O)CO)cc1F)C(=O)C(C(=O)Nc1ccc(C(F)(F)F)cc1-c1ccc(C(F)(F)F)nc1)=C2O [Example 124],81%

row,Compound,Rate of uptake inhibition (%) (1 µM)
1,C[C@]12CCCN1N(Cc1ccc(F)cc1F)C(=O)C(C(=O)Nc1cc(F)c(Br)c(F)c1)=C2O [Example 192],88%
2,C[C@]12CCCN1N(Cc1cccc(F)c1F)C(=O)C(C(=O)Nc1ccc(Cl)cc1F)=C2O [Example 76],77%
3,COCCN(C)CCN(c1ccc(CN2C(=O)C(C(=O)Nc3ccc(C(F)(F)F)cc3-c3cc(C(F)(F)F)ncn3)=C(O)C3(CCCC3)N2C)c(F)c1F)C(C)C [Example 445],29%
4,C[C@]12CCCN1N(Cc1ccc(OCCN3CCOCC3)c(F)c1F)C(=O)C(C(=O)Nc1ccc(C(F)(F)F)nc1-c1cncc(C(F)(F)F)c1)=C2O [Example 106],79%
5,CN1N(Cc2ccc(OCCN3CCN(S(C)(=O)=O)CC3)c(F)c2F)C(=O)C(C(=O)Nc2ccc(C(F)(F)F)cc2-c2cc(C(F)(F)F)ncn2)=C(O)C12CCC2 [Example 363],11%
6,CN1N(Cc2cccc(F)c2F)C(=O)C(C(=O)Nc2ccc(Br)c(C(F)(F)F)n2)=C(O)C12CCC2 [Example 258],87%
7,C[C@]12CCCN1N(Cc1cccc(F)c1F)C(=O)C(C(=O)Nc1ccc(C(F)(F)F)cc1-c1ncnc(C#N)c1Cl)=C2O [Example 23],84%
8,CN1N(Cc2cccc(F)c2F)C(=O)C(C(=O)Nc2ccc(C(F)(F)F)nc2-c2cncc(C(F)(F)F)c2)=C(O)C1(C)C [Example 306],58%
9,COCCOCCOc1ccc(CN2C(=O)C(C(=O)Nc3ccc(C(F)(F)F)cc3-c3cc(C(F)(F)F)ncn3)=C(O)C3(CCC3)N2C)c(F)c1F [Example 401],39%
10,CN1[C@@H](C(C)(C)C)C(O)=C(C(=O)Nc2ccc(C(F)(F)F)cc2C(F)(F)F)C(=O)N1Cc1ccc(OCCN2CCOCC2)c(F)c1F [Example 277],41%
11,CN1N(Cc2cccc(F)c2F)C(=O)C(C(=O)Nc2ccc(Cl)cc2-c2cc(C(F)(F)F)ncn2)=C(O)C12CCC2 [Example 255],80%
12,CCC1(CC)C(O)=C(C(=O)Nc2ccc(Cl)cc2-c2ccc(C(F)(F)F)nc2)C(=O)N(Cc2ccc(OCCN3CCOCC3)c(F)c2F)N1C [Example 294],40%
13,CN1[C@@H](C(C)(C)C)C(O)=C(C(=O)Nc2ccc(Cl)cc2-c2ccc(C(F)(F)F)nc2)C(=O)N1Cc1cccc(F)c1F [Example 239],48%
14,CC(C)[C@@H]1C(O)=C(C(=O)Nc2ccc(Cl)cc2-c2cc(C(F)(F)F)ncn2)C(=O)N(Cc2cccc(F)c2F)N1C [Example 250],52%
15,CN1N(Cc2cccc(F)c2F)C(=O)C(C(=O)Nc2cc(C(F)(F)F)ccc2-c2ccc(C(F)(F)F)nc2)=C(O)C1(C)C [Example 307],41%
16,COCCN1CC(Oc2ccc(CN3C(=O)C(C(=O)Nc4ccc(C(F)(F)F)cc4-c4cc(C(F)(F)F)ncn4)=C(O)C4(CCC4)N3C)c(F)c2F)C1 [Example 406],27%
17,C[C@@H]1COC[C@H](C)N1CCOc1ccc(CN2C(=O)C(C(=O)Nc3ccc(C(F)(F)F)cc3-c3cc(C(F)(F)F)ncn3)=C(O)C3(CCC3)N2C)c(F)c1F [Example 344],58%
18,CN1N(Cc2ccc(OCCN(CCO)CCO)c(F)c2F)C(=O)C(C(=O)Nc2ccc(C(F)(F)F)cc2-c2cc(C(F)(F)F)ncn2)=C(O)C12CCC2 [Example 351],22%
19,CN1N(Cc2ccc(OCCCCCC(=O)O)c(F)c2F)C(=O)C(C(=O)Nc2ccc(C(F)(F)F)cc2-c2cc(C(F)(F)F)ncn2)=C(O)C12CCCC2 [Example 334],22%
20,COc1cc(C)c(-c2cc(C(F)(F)F)ccc2NC(=O)C2=C(O)[C@@]3(C)CCCN3N(Cc3cccc(F)c3F)C2=O)cn1 [Example 80],75%
21,"C[C@]12CCCN1N(Cc1ccc(C#CCCCCC(=O)O)c(F)c1F)C(=O)C(C(=O)Nc1ccc(C(F)(F)F)cc1-c1cncc(C(F)(F)F)c1)=C2O [Example 119, 7-[4-[[(4aR)-4-Hydroxy-4a-methyl-2-oxo-3-[[4-(trifluoromethyl)-2-[5-(trifluoromethyl)pyridin-3-yl]phenyl]carbamoyl]-6.7-dihydro-5H-pyrrolo[1,2-b]pyridazin-1-yl]methyl]-2.3-difluorophenyl]hept-6-ynoate]",71%

# — patent EP3928779A1 (Chugai Seiyaku Kabushiki Kaisha, priority 2014, dated 2016)
